Measured values from patent US4321376A, “Neplanocin-B and -F” (Toyo Jozo Kabushiki Kaisha, priority 1979, dated 1982).

Columns and labels:
Solubility = type: physicochemical; conditions: for Solubility: insoluble in: solvents in which insoluble; for Solubility: soluble in: solvents in which soluble
Anti-depressant activity = conditions: no test details given
mice = assay: Acute toxicity, intraperitoneal administration to mice; type: in vivo, mouse; conditions: 100 mg/kg
Nature (basicity) = type: physicochemical

| Structure (SMILES) | Solubility: insoluble in (Solubility) | Solubility: soluble in (Solubility) | anti-depressant activity (Anti-depressant activity) | Acute toxicity: mortalities (mice) | Nature (Nature (basicity)) |
| --- | --- | --- | --- | --- | --- |
| Nc1ncnc2c1ncn2C1C(O)C2OC2(CO)C1O (stereo not drawn) [neplanocin B] | Insoluble: ethyl acetate, chloroform, benzene and diethyl ether | Soluble: water and dimethyl sulphoxide | has an anti-depressant activity | No mortalities were observed | weakly basic |
| Nc1ncnc2c1ncn2C1C(O)C=C(CO)C1O (stereo not drawn) [neplanocin F] | Insoluble: ethyl acetate, chloroform, benzene and diethyl ether | Soluble: water, dimethyl sulphoxide and acetic acid | – | No mortalities were observed | weakly basic |
